Test results from US9850283B2, “Macrocyclic inhibitors of the PD-1/PD-L1 and CD80(B7-1)/PD-L1 protein/protein interactions” (BRISTOL-MYERS SQUIBB COMPANY, priority 2013, dated 2017).
Where two headings read alike, the source gives them in different places. Positions of bridges follow the written chain, without caps; N, C: chain ends. Non-standard residues stand in square brackets, D forms with d. Residues, ends and D or L forms follow the SMILES beside them. Phe(3-Cl) = N[C@@H](Cc1cccc(Cl)c1)C(=O)O; NMeF = CN[C@@H](Cc1ccccc1)C(=O)O; Chg = N[C@H](C(=O)O)C1CCCCC1; NMeNle = CCCC[C@H](NC)C(=O)O; Dap = NC[C@H](N)C(=O)O; Sar = CNCC(=O)O

How the values were obtained:
[1] = molecular target: T1, LK35.2-hPD-L1 cells / PE-labeled PD-1-Ig (Homo sapiens, UniProt Q9NZQ7); assay: LK35.2-hPD-L1 cell binding high-content screening assay; format: cell-based; conditions: cell line of CBA not given (LK35.2-hPD-L1 or 293T-hPD-L1)
T1 construct: expressed in transfected cells; host or cells: LK35.2 mouse B cell line
T1 sequence (Q9NZQ7 19-290): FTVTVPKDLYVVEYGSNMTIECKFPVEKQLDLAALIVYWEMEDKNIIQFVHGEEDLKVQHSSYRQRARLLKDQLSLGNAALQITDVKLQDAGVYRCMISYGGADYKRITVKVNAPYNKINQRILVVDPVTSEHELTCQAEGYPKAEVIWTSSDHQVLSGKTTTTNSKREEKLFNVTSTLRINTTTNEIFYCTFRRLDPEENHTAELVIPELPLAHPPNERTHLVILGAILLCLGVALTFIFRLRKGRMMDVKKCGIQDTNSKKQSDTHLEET
In short: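 Compound effect on PD-1/PD-L1 binding is measured by imaging cell-associated phycoerythrin signal. Human PD-1-Ig (PE on Ig tag, 1 nM final) is applied with compound to a murine B cell line overexpressing human PD-L1 for 1 h at 37 °C in serum-containing RPMI.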

Human PD-L1/PD-1 = molecular target: T2, Human PD-L1/PD-1 (Homo sapiens, UniProt Q9NZQ7); assay: HTRF PD-1-Ig/PD-L1-His binding assay (human PD-L1)
T2 construct: made in house; host or cells: HEK293T
T2 sequence (Q9NZQ7 with tags, fused parts or gaps): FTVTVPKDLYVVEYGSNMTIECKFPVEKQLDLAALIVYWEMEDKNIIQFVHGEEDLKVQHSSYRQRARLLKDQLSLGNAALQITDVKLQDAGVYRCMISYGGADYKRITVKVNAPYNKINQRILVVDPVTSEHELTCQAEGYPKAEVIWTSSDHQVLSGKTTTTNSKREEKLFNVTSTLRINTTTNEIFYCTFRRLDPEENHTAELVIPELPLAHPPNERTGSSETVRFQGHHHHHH
In short: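 The time-resolved fluorescence signal comes from Eu-cryptate anti-Ig (1 nM) and APC anti-His (20 nM) antibodies bound to a PD-1-Ig/PD-L1-His complex. Both partners lack transmembrane regions.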

[2] = cluster symbol, read-out: CBA IC50 cluster
[3] = cluster symbol, read-out: HTRF IC50 cluster

Structure (SMILES)	IC50 [1, 2]	IC50 (Human PD-L1/PD-1; [3])	IC50 ([1]; read-out: CBA IC50 value)	IC50 (Human PD-L1/PD-1; read-out: HTRF IC50 value)
CCCC[C@H]1C(=O)N(C)CC(=O)N[C@@H](CCN)C(=O)N[C@@H](C(C)C)C(=O)N(C)[C@@H](Cc2ccccc2)C(=O)N[C@@H](Cc2ccc(O)cc2)C(=O)N(C)CC(=O)N[C@@H](Cc2c[nH]c3ccccc23)C(=O)N[C@@H](Cc2ccc(O)cc2)C(=O)N[C@@H](CC(C)C)C(=O)N[C@H](C(=O)NCC(N)=O)CSCC(=O)N[C@@H](Cc2ccccc2)C(=O)N(C)[C@@H](Cc2ccccc2)C(=O)N1C [Example 3153] (HELM PEPTIDE1{[O=C(C[*:3])[*:2]].F.[meF].[CCCC[C@@H](C(=O)[*:2])N(C)[*:1]].[Sar].[Dab].V.[meF].Y.[Sar].W.Y.L.C.G.[am]}$PEPTIDE1,PEPTIDE1,1:R3-14:R3$$$V2.0)	4.78 to 72.9 nM	6.76 to 30.3 nM		
CCCC[C@H]1C(=O)N(C)CC(=O)N[C@@H](Cc2ccc(O)cc2)C(=O)N[C@@H](C(C)C)C(=O)N(C)[C@@H](Cc2ccccc2)C(=O)N[C@@H](Cc2ccc(O)cc2)C(=O)N(C)CC(=O)N[C@@H](Cc2c[nH]c3ccccc23)C(=O)N[C@@H](Cc2ccc(O)cc2)C(=O)N[C@@H](CC(C)C)C(=O)N[C@H](C(=O)NCC(N)=O)CSCC(=O)N[C@@H](Cc2ccccc2)C(=O)N(C)[C@@H](Cc2ccccc2)C(=O)N1C [Example 3154] (HELM PEPTIDE1{[O=C(C[*:3])[*:2]].F.[meF].[CCCC[C@@H](C(=O)[*:2])N(C)[*:1]].[Sar].Y.V.[meF].Y.[Sar].W.Y.L.C.G.[am]}$PEPTIDE1,PEPTIDE1,1:R3-14:R3$$$V2.0)			18.4 nM	230 nM
CCCC[C@H]1C(=O)N(C)CC(=O)N[C@@H](CC(=O)O)C(=O)N[C@@H](COC)C(=O)N(C)[C@@H](Cc2ccccc2)C(=O)N[C@@H](Cc2ccc(O)cc2)C(=O)N(C)CC(=O)N[C@@H](Cc2c[nH]c3ccccc23)C(=O)N[C@@H](Cc2ccc(O)cc2)C(=O)N[C@@H](CC(C)C)C(=O)N[C@H](C(=O)NCC(N)=O)CSCC(=O)N[C@@H](Cc2ccccc2)C(=O)N(C)[C@@H](Cc2ccccc2)C(=O)N1C [Example 3155] ({CH2CO}-F[NMeF][NMeNle][Sar]DS(Me)[NMeF]Y[Sar]WYLCG-NH2; thioether N-13)	> 74.3 nM	> 30.5 nM		
CCCC[C@H]1C(=O)N(C)CC(=O)N[C@@H](CC(=O)O)C(=O)N[C@@H](CO)C(=O)N(C)[C@@H](Cc2ccccc2)C(=O)N[C@@H](Cc2ccc(O)cc2)C(=O)N(C)CC(=O)N[C@@H](Cc2c[nH]c3ccccc23)C(=O)N[C@@H](Cc2ccc(O)cc2)C(=O)N[C@@H](CC(C)C)C(=O)N[C@H](C(=O)NCC(N)=O)CSCC(=O)N[C@@H](Cc2ccccc2)C(=O)N(C)[C@@H](Cc2ccccc2)C(=O)N1C [Example 3156] (HELM PEPTIDE1{[O=C(C[*:3])[*:2]].F.[meF].[CCCC[C@@H](C(=O)[*:2])N(C)[*:1]].[Sar].D.S.[meF].Y.[Sar].W.Y.L.C.G.[am]}$PEPTIDE1,PEPTIDE1,1:R3-14:R3$$$V2.0)			1870 nM	439 nM
CCCC[C@H]1C(=O)N(C)CC(=O)N[C@@H](CC(=O)O)C(=O)N[C@@H]([C@@H](C)OC)C(=O)N(C)[C@@H](Cc2ccccc2)C(=O)N[C@@H](Cc2ccc(O)cc2)C(=O)N(C)CC(=O)N[C@@H](Cc2c[nH]c3ccccc23)C(=O)N[C@@H](Cc2ccc(O)cc2)C(=O)N[C@@H](CC(C)C)C(=O)N[C@H](C(=O)NCC(N)=O)CSCC(=O)N[C@@H](Cc2ccccc2)C(=O)N(C)[C@@H](Cc2ccccc2)C(=O)N1C [Example 3157] ({CH2CO}-F[NMeF][NMeNle][Sar]DT(Me)[NMeF]Y[Sar]WYLCG-NH2; thioether N-13)	4.78 to 72.9 nM	6.76 to 30.3 nM		
CCCC[C@H]1C(=O)N(C)CC(=O)N[C@@H](CC(=O)O)C(=O)N[C@@H](C2CCCCC2)C(=O)N(C)[C@@H](Cc2ccccc2)C(=O)N[C@@H](Cc2ccc(O)cc2)C(=O)N(C)CC(=O)N[C@@H](Cc2c[nH]c3ccccc23)C(=O)N[C@@H](Cc2ccc(O)cc2)C(=O)N[C@@H](CC(C)C)C(=O)N[C@H](C(=O)NCC(N)=O)CSCC(=O)N[C@@H](Cc2ccccc2)C(=O)N(C)[C@@H](Cc2ccccc2)C(=O)N1C [Example 3158] ({CH2CO}-F[NMeF][NMeNle][Sar]D[Chg][NMeF]Y[Sar]WYLCG-NH2; thioether N-13)	4.78 to 72.9 nM	> 30.5 nM		
CCCC[C@H]1C(=O)N(C)CC(=O)N[C@@H](CC(=O)O)C(=O)N[C@@H](CC2CCCCC2)C(=O)N(C)[C@@H](Cc2ccccc2)C(=O)N[C@@H](Cc2ccc(O)cc2)C(=O)N(C)CC(=O)N[C@@H](Cc2c[nH]c3ccccc23)C(=O)N[C@@H](Cc2ccc(O)cc2)C(=O)N[C@@H](CC(C)C)C(=O)N[C@H](C(=O)NCC(N)=O)CSCC(=O)N[C@@H](Cc2ccccc2)C(=O)N(C)[C@@H](Cc2ccccc2)C(=O)N1C [Example 3159] (HELM PEPTIDE1{[O=C(C[*:3])[*:2]].F.[meF].[CCCC[C@@H](C(=O)[*:2])N(C)[*:1]].[Sar].D.[Cha].[meF].Y.[Sar].W.Y.L.C.G.[am]}$PEPTIDE1,PEPTIDE1,1:R3-14:R3$$$V2.0)	> 74.3 nM	> 30.5 nM		

The next lines start with the values.

IC50 [1, 2]	IC50 (Human PD-L1/PD-1; [3])	IC50 ([1]; read-out: CBA IC50 value)	IC50 (Human PD-L1/PD-1; read-out: HTRF IC50 value)	Structure (SMILES)
> 74.3 nM	> 30.5 nM			CCCC[C@H]1C(=O)N(C)CC(=O)N[C@@H](CC(=O)O)C(=O)N[C@@H](C(C)C)C(=O)N(C)[C@@H](Cc2ccccc2)C(=O)N[C@@H](Cc2ccc(O)cc2)C(=O)N(C)CC(=O)N[C@@H](Cc2c[nH]c3ccccc23)C(=O)N[C@@H](Cc2ccc(O)cc2)C(=O)N[C@@H](CC(C)C)C(=O)N[C@H](C(=O)NCC(N)=O)CC=CC(=O)N[C@@H](Cc2ccccc2)C(=O)N(C)[C@@H](Cc2ccccc2)C(=O)N1C [Example 3160]
4.78 to 72.9 nM	6.76 to 30.3 nM			CCCC[C@H]1C(=O)N(C)CC(=O)N[C@@H](CC(=O)O)C(=O)N[C@@H](C(C)C)C(=O)N(C)[C@@H](Cc2ccccc2)C(=O)N[C@@H](Cc2ccc(O)cc2)C(=O)N(C)CC(=O)N[C@@H](Cc2c[nH]c3ccccc23)C(=O)N[C@@H](Cc2ccc(O)cc2)C(=O)N[C@@H](CN)C(=O)N[C@H](C(=O)NCC(N)=O)CSCC(=O)N[C@@H](Cc2ccccc2)C(=O)N(C)[C@@H](Cc2ccccc2)C(=O)N1C [Example 3161] ({CH2CO}-F[NMeF][NMeNle][Sar]DV[NMeF]Y[Sar]WY[Dap]CG-NH2; thioether N-13)
4.78 to 72.9 nM	6.76 to 30.3 nM			CCCC[C@H]1C(=O)N(C)CC(=O)N[C@@H](CC(=O)O)C(=O)N[C@@H](C(C)C)C(=O)N(C)[C@@H](Cc2ccccc2)C(=O)N[C@@H](Cc2ccc(O)cc2)C(=O)N(C)CC(=O)N[C@@H](Cc2c[nH]c3ccccc23)C(=O)N[C@@H](Cc2ccc(O)cc2)C(=O)N[C@@H](CCN)C(=O)N[C@H](C(=O)NCC(N)=O)CSCC(=O)N[C@@H](Cc2ccccc2)C(=O)N(C)[C@@H](Cc2ccccc2)C(=O)N1C [Example 3162] (HELM PEPTIDE1{[O=C(C[*:3])[*:2]].F.[meF].[CCCC[C@@H](C(=O)[*:2])N(C)[*:1]].[Sar].D.V.[meF].Y.[Sar].W.Y.[Dab].C.G.[am]}$PEPTIDE1,PEPTIDE1,1:R3-14:R3$$$V2.0)
4.78 to 72.9 nM	6.76 to 30.3 nM			CCCC[C@H]1C(=O)N(C)CC(=O)N[C@@H](CC(=O)O)C(=O)N[C@@H](C(C)C)C(=O)N(C)[C@@H](Cc2ccccc2)C(=O)N[C@@H](Cc2ccc(O)cc2)C(=O)N(C)CC(=O)N[C@@H](Cc2c[nH]c3ccccc23)C(=O)N[C@@H](Cc2ccc(O)cc2)C(=O)N[C@@H](CCCN)C(=O)N[C@H](C(=O)NCC(N)=O)CSCC(=O)N[C@@H](Cc2ccccc2)C(=O)N(C)[C@@H](Cc2ccccc2)C(=O)N1C [Example 3163] (HELM PEPTIDE1{[O=C(C[*:3])[*:2]].F.[meF].[CCCC[C@@H](C(=O)[*:2])N(C)[*:1]].[Sar].D.V.[meF].Y.[Sar].W.Y.[Orn].C.G.[am]}$PEPTIDE1,PEPTIDE1,1:R3-14:R3$$$V2.0)
4.78 to 72.9 nM	6.76 to 30.3 nM			CCCC[C@H]1C(=O)N(C)CC(=O)N[C@@H](CC(=O)O)C(=O)N[C@@H](C(C)C)C(=O)N(C)[C@@H](Cc2ccccc2)C(=O)N[C@@H](Cc2ccc(O)cc2)C(=O)N(C)CC(=O)N[C@@H](Cc2c[nH]c3ccccc23)C(=O)N[C@@H](Cc2ccc(O)cc2)C(=O)N[C@@H](CCCCN)C(=O)N[C@H](C(=O)NCC(N)=O)CSCC(=O)N[C@@H](Cc2ccccc2)C(=O)N(C)[C@@H](Cc2ccccc2)C(=O)N1C [Example 3164] (HELM PEPTIDE1{[O=C(C[*:3])[*:2]].F.[meF].[CCCC[C@@H](C(=O)[*:2])N(C)[*:1]].[Sar].D.V.[meF].Y.[Sar].W.Y.K.C.G.[am]}$PEPTIDE1,PEPTIDE1,1:R3-14:R3$$$V2.0)
4.78 to 72.9 nM	6.76 to 30.3 nM			CCCC[C@H]1C(=O)N(C)CC(=O)N[C@@H](CC(=O)O)C(=O)N[C@@H](C(C)C)C(=O)N(C)[C@@H](Cc2ccccc2)C(=O)N[C@@H](Cc2ccc(O)cc2)C(=O)N(C)CC(=O)N[C@@H](Cc2c[nH]c3ccccc23)C(=O)N[C@@H](Cc2ccc(O)cc2)C(=O)N[C@@H](Cc2c[nH]cn2)C(=O)N[C@H](C(=O)NCC(N)=O)CSCC(=O)N[C@@H](Cc2ccccc2)C(=O)N(C)[C@@H](Cc2ccccc2)C(=O)N1C [Example 3165] (HELM PEPTIDE1{[O=C(C[*:3])[*:2]].F.[meF].[CCCC[C@@H](C(=O)[*:2])N(C)[*:1]].[Sar].D.V.[meF].Y.[Sar].W.Y.H.C.G.[am]}$PEPTIDE1,PEPTIDE1,1:R3-14:R3$$$V2.0)
0.158 to 4.71 nM	6.76 to 30.3 nM			CCCC[C@H]1C(=O)N(C)CC(=O)N[C@@H](CC(=O)O)C(=O)N[C@@H](C(C)C)C(=O)N(C)[C@@H](Cc2ccccc2)C(=O)N[C@@H](Cc2ccc(O)cc2)C(=O)N2CCC[C@@H]2C(=O)N[C@@H](Cc2c[nH]c3ccccc23)C(=O)N[C@@H](Cc2ccc(O)cc2)C(=O)N[C@@H](CC(C)C)C(=O)N[C@H](C(N)=O)CSCC(=O)N[C@@H](Cc2cccc(Cl)c2)C(=O)N(C)[C@@H](Cc2ccccc2)C(=O)N1C [Example 3166] ({CH2CO}-[Phe(3-Cl)][NMeF][NMeNle][Sar]DV[NMeF]Y[dP]WYLC-NH2; thioether N-13)
